The target in assay [1] is T1, V2-vasopressin receptors (Sus scrofa, UniProt P32307).
T1 construct: Medullary pig kidney tissue; from tissue; host or cells: pig (hog) kidney medulla
The assay is described as follows: inhibition of 3H-LVP binding, medullary pig kidney tissue. As for the experimental part: (§1) Antagonistic activity of the V1 -vasopressin receptors is determined in a protocol which measures the reversal of the vasopressin-induced contraction of rat thoracic aorta tissue. This is expressed as KB (nM) in the table below. Such anti-pressor activity is confirmed in a similar in vitro protocol using the plasma membranes of rat liver. V2 -vasopressin antagonism is determined as receptor binding ability measured by inhibition of 3H-LVP binding (KB as nM), by inhibition of adenylate cyclase activation by vasopressin in the medullary tissue of hog kidneys (Ki as nM) or in vivo in the hydropenic rat protocol (ED300 μg/kg). These procedures are described in the literature: F. Stassen et al., J. Pharmacology and Experimental Therapeutics, 223 50 (1982); F. Stassen et al., 1st International Conference on Diuretics, Miami, Fla., March (1984). Antagonistic activity at oxytocin receptors is determined in the isolated rat uterus protocol: W. Sawyer, et al., Endocrinology 106 81 (1979); P. Melin, et al., J. of Endocrinology 88 173 (1981).
(§2) ^a Medullary pig kidney tissue, […]

In assay [2] the target is T2, V1-vasopressin receptors (Rattus norvegicus, UniProt P30560).
T2 construct: Rat aortic ring tissue; from tissue; host or cells: rat thoracic aorta rings
Put plainly: in vitro protocol using plasma membranes of rat liver. The settings on record: rat liver membrane. The class given is binding. On the procedure:
as §1

The target of assay [3] is T2, V1-vasopressin receptors. The assay is described as follows: reversal of vasopressin-induced contraction of rat thoracic aorta tissue. The format is cell-based. The settings on record: rat aortic ring tissue. As for the experimental part: as §1
^c Rat aortic ring tissue, […]

The target in the next assay is T3, oxytocin receptors (Rattus norvegicus, UniProt P70536).
T3 construct: Rat uterus; from tissue; host or cells: isolated rat uterus
T3 sequence (P70536 1-388): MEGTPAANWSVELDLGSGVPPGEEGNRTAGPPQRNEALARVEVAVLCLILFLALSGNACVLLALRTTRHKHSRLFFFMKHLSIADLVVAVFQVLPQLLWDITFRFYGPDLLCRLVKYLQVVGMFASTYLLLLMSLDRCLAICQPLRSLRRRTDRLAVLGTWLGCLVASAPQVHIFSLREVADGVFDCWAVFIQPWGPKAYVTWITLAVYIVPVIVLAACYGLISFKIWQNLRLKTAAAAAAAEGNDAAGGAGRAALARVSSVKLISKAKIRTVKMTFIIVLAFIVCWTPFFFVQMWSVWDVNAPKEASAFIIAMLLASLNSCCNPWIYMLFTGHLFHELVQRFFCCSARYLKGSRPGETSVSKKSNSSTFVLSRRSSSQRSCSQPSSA
Put plainly: isolated rat uterus protocol. The class given is cell-based. The settings on record: read-out: Rat OXT KB. As for the experimental part: as §1

The target of assay [4] is T4, V2-vasopressin receptors (Rattus norvegicus, UniProt Q00788).
T4 construct: Hydropenic rat; from tissue; host or cells: whole animal (hydropenic rat)
Put plainly: hydropenic rat protocol in vivo. On the procedure:
as §1

For assay [5], the target named is T1, V2-vasopressin receptors. The assay is described as follows: inhibition of adenylate cyclase activation by vasopressin, medullary pig kidney tissue. The class given is biochemical. On the procedure:
as §1, §2

SMILES strings stand for the structures. Numbered stars: 1 amine (or outer) side, 2 acyl side, 3 side chain; on linkers, the order of the positions; unused ones are H or OH. Bridge positions count the residues as written; N and C are the ends. Square brackets hold non-standard residues; d marks the D form. Peptide text beside a SMILES is read from it. X2 = O=C(CC1(S[*:2])CCCCC1)[*:1]; X1 = CC(C)(CC(=O)[*:1])S[*:2]; Mpa = O=C(O)CCS A value given as a limit tells only on which side of the number the result lay.

As a reminder, the Ki is the equilibrium dissociation constant of an inhibitor or competing ligand from its target. Read a low Ki as higher affinity.

T2 sequence (P30560 whole entry): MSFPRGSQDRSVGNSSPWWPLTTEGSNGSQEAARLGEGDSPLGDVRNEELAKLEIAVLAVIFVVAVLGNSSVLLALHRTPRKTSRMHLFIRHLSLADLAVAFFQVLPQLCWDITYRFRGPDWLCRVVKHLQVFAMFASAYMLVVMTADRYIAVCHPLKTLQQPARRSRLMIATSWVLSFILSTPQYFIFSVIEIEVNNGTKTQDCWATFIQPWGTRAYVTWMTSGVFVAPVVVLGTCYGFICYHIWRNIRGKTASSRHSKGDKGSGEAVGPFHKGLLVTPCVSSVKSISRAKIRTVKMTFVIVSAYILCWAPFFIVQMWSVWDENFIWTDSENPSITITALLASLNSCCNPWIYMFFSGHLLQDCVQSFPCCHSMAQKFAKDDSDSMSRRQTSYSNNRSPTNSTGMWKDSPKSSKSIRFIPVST
T1 sequence (P32307 whole entry): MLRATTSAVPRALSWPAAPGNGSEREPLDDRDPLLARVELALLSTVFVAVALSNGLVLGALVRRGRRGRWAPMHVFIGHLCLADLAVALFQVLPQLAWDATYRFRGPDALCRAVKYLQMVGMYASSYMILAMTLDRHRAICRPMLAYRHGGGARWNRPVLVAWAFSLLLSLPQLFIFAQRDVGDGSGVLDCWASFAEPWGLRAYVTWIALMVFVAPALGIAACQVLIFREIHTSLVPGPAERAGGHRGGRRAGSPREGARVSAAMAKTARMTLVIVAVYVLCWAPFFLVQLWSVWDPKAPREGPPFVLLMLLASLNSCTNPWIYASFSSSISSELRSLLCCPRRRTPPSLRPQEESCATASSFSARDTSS
T4 sequence (Q00788 whole entry): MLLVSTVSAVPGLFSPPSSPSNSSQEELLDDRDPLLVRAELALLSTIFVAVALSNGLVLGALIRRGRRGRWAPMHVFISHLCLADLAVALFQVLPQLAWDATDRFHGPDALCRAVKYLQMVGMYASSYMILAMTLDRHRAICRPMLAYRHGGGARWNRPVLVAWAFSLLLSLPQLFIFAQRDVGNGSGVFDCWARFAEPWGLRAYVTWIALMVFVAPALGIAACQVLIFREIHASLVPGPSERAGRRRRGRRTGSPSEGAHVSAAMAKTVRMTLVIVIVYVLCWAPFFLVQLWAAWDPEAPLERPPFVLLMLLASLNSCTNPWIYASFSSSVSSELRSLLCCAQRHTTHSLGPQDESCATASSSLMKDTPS

For the compound `COc1ccc(C[C@@H]2NC(=O)CC(C)(C)SSC[C@@H](C(=O)N[C@@H](CCCNC(=N)N)C(N)=O)NC(=O)[C@H](CC(N)=O)NC(=O)[C@H](CCC(N)=O)NC(=O)[C@H](Cc3ccccc3)NC2=O)cc1` [A] (Y(Me)FQNCR-NH2; linker N-5 via X1), the Kb at V2-vasopressin receptors [1] was determined as 3000 nM; on V1-vasopressin receptors [2] it was 38 nM; on V1-vasopressin receptors [3], 5.69 nM; on oxytocin receptors it was 32.6 nM. The “Rat V2 ED300” value on V2-vasopressin receptors [4] was more than 5.959 mg/kg.
With `CCOc1ccc(C[C@H]2NC(=O)CC(C)(C)SSC[C@@H](C(=O)N[C@@H](CCCNC(=N)N)C(N)=O)NC(=O)[C@H](CC(N)=O)NC(=O)[C@H](CCC(N)=O)NC(=O)[C@H](Cc3ccccc3)NC2=O)cc1` [C] ([dY](Et)FQNCR-NH2; linker N-5 via X1), the Kb was 350 nM at V2-vasopressin receptors [1]; 0.0072 nM at V1-vasopressin receptors [3] (estimated, compound noncompetitive); 1.88 nM on oxytocin receptors.
For the compound `COc1ccc(C[C@@H]2NC(=O)CC3(CCCCC3)SSC[C@@H](C(=O)N3CCC[C@H]3C(=O)N[C@@H](CCCN=C(N)N)C(=O)NCC(N)=O)NC(=O)[C@H](CC(N)=O)NC(=O)[C@H](CCC(N)=O)NC(=O)[C@H](Cc3ccccc3)NC2=O)cc1` [G] (Y(Me)FQNCPRG-NH2; linker N-5 via X2), affinity at V2-vasopressin receptors [5] was put at a Ki of 210 nM. Besides, the Kb at V2-vasopressin receptors [1] worked out at 369 nM; at V1-vasopressin receptors [2] it was 0.48 nM; at V1-vasopressin receptors [3], 0.026 nM.
Consider `CCOc1ccc(C[C@H]2NC(=O)CCSSC[C@@H](C(=O)N[C@@H](CCCNC(=N)N)C(N)=O)NC(=O)[C@H](CC(N)=O)NC(=O)[C@H]([C@@H](C)O)NC(=O)[C@H]([C@@H](C)CC)NC2=O)cc1` [D] ([Mpa][dY](Et)ITNCR-NH2; disulfide 1-6), for which the Kb on V2-vasopressin receptors [1] was determined as 1600 nM; at oxytocin receptors it was 11.4 nM.
In the case of `CCOc1ccc(C[C@H]2NC(=O)CCSSC[C@@H](C(=O)N[C@@H](CCCNC(=N)N)C(=O)NCC(N)=O)NC(=O)[C@H](CC(N)=O)NC(=O)[C@H]([C@@H](C)O)NC(=O)[C@H]([C@@H](C)CC)NC2=O)cc1` [E] ([Mpa][dY](Et)ITNCRG-NH2; disulfide 1-6), the figures for the Kb at V2-vasopressin receptors [1] and at oxytocin receptors were 4100 nM and 17.7 nM, respectively.
As for `COc1ccc(C[C@@H]2NC(=O)CC(C)(C)SSC[C@@H](C(=O)N[C@@H](CCCNC(=N)N)C(=O)NCC(N)=O)NC(=O)[C@H](CC(N)=O)NC(=O)[C@H](CCC(N)=O)NC(=O)[C@H](Cc3ccccc3)NC2=O)cc1` [B] (Y(Me)FQNCRG-NH2; linker N-5 via X1), the Kb at V2-vasopressin receptors [1] is 3300 nM; on V1-vasopressin receptors [2] it was 37 nM; on V1-vasopressin receptors [3], 1.48 nM; at oxytocin receptors, 18.9 nM. In addition, the “Rat V2 ED300” value at V2-vasopressin receptors [4] is more than 5.977 mg/kg.
Regarding `COc1ccc(C[C@@H]2NC(=O)CC(C)(C)SSC[C@@H](C(=O)N3CCC[C@H]3C(=O)N[C@@H](CCCNC(=N)N)C(=O)NCC(N)=O)NC(=O)[C@H](CC(N)=O)NC(=O)[C@H](CCC(N)=O)NC(=O)[C@H](Cc3ccccc3)NC2=O)cc1` [F] (Y(Me)FQNCPRG-NH2; linker N-5 via X1), the “Pig V2 Ki” value on V2-vasopressin receptors [5] is listed as “agonist”. Also, the Kb on V2-vasopressin receptors [1] turned out to be 70 nM; at V1-vasopressin receptors [2] it was 2.9 nM.

The values are drawn from US4684622A, “Compositions and methods for producing vasodilation and antioxytocic activity” (SmithKline Beckman Corporation, priority 1986, dated 1987).
